Test system: 129SvEdnrb−/− (KO) mice with colonic aganglionosis
Experiment: Histological enterocolitis scoring after medicated water treatment in murine model of HAEC
Type: in vivo, mouse
Conditions: Ednrb−/− (KO) mice, antifungal only in drinking water, vs untreated KO; trend, did not reach significance
Excerpt: Regular water treated KO mice (KO_H2O) and their wild type littermates (WT_H2O) were used as untreated control. […] The total enterocolitis score of each treatment was compared with KO_H2O by using unpaired two-tailed Student's t-test. Results are shown as Mean±SEM, *P<0.05; **P<0.01. We test antibiotic and antifungal agents and their combinations on the 129sv/Ednrb mouse strain shown to be a model of HAEC. The experimental groups and protocol are described below: Medicated water which contains enrofloxacin (Baytril), metronidazole, vancomycin, natamycin ([…]), fluconazole, and/or […] (Isavuconazole sulfate) are administered to pregnant mice from the time that the pregnancy is noted, through weaning of the pups. In other words, the administration of medicated water to moms are stopped after weaning, and then continued with the weaned pups. Six groups of animals (129sv/Ednrb-null mouse strain, n=5-8 per group) with different treatment are described as below. The dosage was calculated by the concentration of antibiotic and antifungal agents and assuming a mouse taking 5 ml water per day based on published data. Group 1. […] Significant changes in makeup between the samples will be verified by quantitative PCR. […]

Compound | reduction of mean enterocolitis score [%]
C[C@@H]1C/C=C/C=C/C=C/C=C/[C@H](O[C@@H]2O[C@H](C)[C@@H](O)[C@H](N)[C@@H]2O)C[C@@H]2O[C@](O)(C[C@@H](O)C[C@H]3O[C@@H]3/C=C/C(=O)O1)C[C@H](O)[C@H]2C(=O)O [AFX1, natamycin] | 42
OC(Cn1cncn1)(Cn1cncn1)c1ccc(F)cc1F [AFX2, fluconazole] | 34

Source: patent publication US20170189474A1, “ANTIFUNGAL THERAPY FOR THE TREATMENT OF HIRSCHSPRUNG-ASSOCIATED ENTEROCOLITIS” (Cedars-Sinai Medical Center, priority 2014, published 2017)
